Read-outs that look alike come from different tables or passages of the source.

This is an account of results in patent publication US20240335372A1, “Sustained-Release Vaginal Films” (priority 2021, published 2024).

Data set [1] can be described thus: Macaque (NHP) pharmacokinetic study after vaginal film administration: vaginal swabs, plasma, PBMCs. On the procedure: In NHP film evaluations, both vaginal fluid and blood components (e.g. plasma) samples were collected for at least 31 days post-film administration to assess drug levels and evaluate vaginal release and systemic exposure. […] In study 2, MPT films with increased LNG dose (e.g., 3.5 mg vs. 1 mg) were evaluated. […] Study 3 utilized the same formulation developed for Study 2 by simply replacing LNG with ENG.
The developed MPT film was administered in six macaques.

The conditions of data set [2]: macaques; cited from earlier work.
For data set [3] the following is noted: humans; cited from earlier work.
Data set [4] in a line: EFdA-TP elimination half-life in macaques. In kind it is in vivo. The conditions noted are these: macaques vs humans.
Data set [5] is described as follows: In vitro drug release of APIs from the extended-release polymer matrix film (Eudragit with PLGA). It is filed as physicochemical. The conditions noted are these: FIG. 3; API in Eudragit/PLGA film. As for the experimental part:
An initial screening study was conducted to identify suitable polymers for this application.
Based on visual disintegration it was identified that only the combination of PLGA and Eudragit polymers was successful in extending the disintegration time (FIG. 2). […] This burst release could be attributed to the hydrophilic nature of the drug.

On to `C#C[C@]1(CO)O[C@@H](n2cnc3c(N)nc(F)nc32)C[C@@H]1O` [EFdA, 4′-Ethynyl-2-fluoro-2′-deoxyadenosine], for which, in data set [1] (female, macaque, in vivo), the “detectable levels present in the vaginal fluid until day” value was found to be 31 days; the “detected in swabs until day” value worked out at 31 days; the “duration of release, vaginal swab and plasma levels” value worked out at 30 days. Moreover, in data set [1] (female, macaque, in vivo, 28 day), the “animals above BLQ” value was 2/3. Moreover, the “animals above BLQ” value in data set [1] (female, macaque, in vivo, 31 day) was 1/3. Also, in data set [1] (in vivo), the “drug levels in vivo” value is reported as “sustained drug levels” and the “plasma half-life compared with previously reported values after oral administration” value was “significantly higher”.

As to `C#C[C@]1(COP(=O)(O)OP(=O)(O)OP(=O)(O)O)O[C@@H](n2cnc3c(N)nc(F)nc32)C[C@@H]1O` [EFdA-TP], the values for the elimination half-life in data set [2] and in data set [3] were about 40 h and 190 h, respectively. Moreover, in data set [1] (MPT film LNG 16 mg, EFdA 14 mg, six macaques), the “day until which PBMC levels were above the target (0.05 pmol/10^6 PBMCs)” value was at least 14 day. The “average concentration in PBMCs, remained detectable until day 31” value in data set [1] (MPT film LNG 16 mg, EFdA 14 mg, six macaques, day 31) was determined as 0.018 pmol. For the same molecule, the “fold shorter elimination half-life in macaques than in humans” value in data set [4] is 4-5 times.

For the molecule `C#C[C@]1(O)CC[C@H]2[C@@H]3CCC4=CC(=O)CC[C@@H]4[C@H]3C(=C)C[C@@]21CC` [ENG, etonogestrel], the “drug levels in vivo” value in data set [1] (in vivo) was “sustained drug levels”.

For `C=C1[C@H](CO)[C@@H](O)C[C@@H]1n1cnc2c(=O)[nH]c(N)nc21` [ETV, Entecavir], in data set [5], the “drug release profile in the extended-release polymer matrix” value (“drug release profile” below) was “burst release”.

As for `C#C[C@]1(O)CC[C@H]2[C@@H]3CCC4=CC(=O)CC[C@@H]4[C@H]3CC[C@@]21CC` [LNG, levonorgestrel], in data set [1] (female, macaque, in vivo), the “animals above BLQ” value is on record as 0/3; the “animals with swab levels above BLQ” value is reported as 2/3; the “detectable levels present in the vaginal fluid until day” value was found to be 31 days; the “duration of release, vaginal swab and plasma levels” value is recorded as 30 days. The “animals above BLQ” value in data set [1] (female, macaque, in vivo, 7 day) is given as 1/3. The “plasma half-life compared with previously reported values after oral administration” value in data set [1] (in vivo) is reported as “significantly higher”.

Take `CCN1C[C@H](C)n2c(c(O)c3c(=O)n(Cc4ccc(F)c(Cl)c4)nc(C(=O)NC)c32)C1=O` [MK-2048]: the “drug release profile” value in data set [5] was “extended release”.

Take `CC(C)OC(=O)[C@H](C)N[P@](=O)(OC[C@H]1O[C@@H](n2ccc(=O)[nH]c2=O)[C@](C)(F)[C@@H]1O)Oc1ccccc1` [SBV, Sofosbuvir]: in data set [5], the “drug release profile” value is given as “burst release”.
